Experimental data taken from PubChem BioAssay AID1431 (PCMD, 2008).
Active and inactive are the calls of the source. No rule for the calls is given here.

Target: Kallikrein-5 (Homo sapiens) (UniProt Q9Y337)
Assay: human KLK5 inhibitor potency, dose response, biochemical, 1536-well (AID 1431)
Conditions: recombinant KLK5 enzyme activity, fluorogenic substrate

Sequence of Kallikrein-5 (Homo sapiens) (Q9Y337 67-293 limits assumed): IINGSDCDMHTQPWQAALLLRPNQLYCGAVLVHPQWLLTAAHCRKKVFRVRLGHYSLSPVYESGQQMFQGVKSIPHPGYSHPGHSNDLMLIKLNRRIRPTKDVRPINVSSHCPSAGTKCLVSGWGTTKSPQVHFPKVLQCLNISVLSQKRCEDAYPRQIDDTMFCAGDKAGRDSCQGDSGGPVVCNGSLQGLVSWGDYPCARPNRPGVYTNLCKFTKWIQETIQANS

Structure (SMILES)	IC50
COc1cccc(N2C(=O)CC(NNc3nc4ccccc4s3)C2=O)c1 (stereo unspecified)	> 50 µM (inactive)
Cc1ccc(Cn2c(O)c(N=NC(=S)Nc3ccccc3F)c3cc(S(=O)(=O)N4CCOCC4)ccc32)cc1	> 50 µM (inactive)
COc1ccc(C2C(C(C)=O)=C(O)C(=O)N2c2nccs2)cc1OC (stereo unspecified)	26 µM
CCOC(=O)C1CCCN(C2CC(=O)N(c3ccc(C)cc3)C2=O)C1 (stereo unspecified)	> 50 µM (inactive)
Cc1cc(N2C(=O)CC(Cc3ccc(Cl)cc3)C2=O)no1 (stereo unspecified)	> 50 µM (inactive)
CCCC(C)C1C(C#N)=C(N)Oc2c1c(=O)oc1ccccc21 (stereo unspecified)	> 50 µM (inactive)
COc1ccc2c(c1)C(c1ccc(N3CCOCC3)cc1)=NNC(c1cccnc1)=N2	> 50 µM (inactive)
Cc1cc(C)n(CC2CC(=O)N(c3ccc(Cl)c(Cl)c3)C2=O)n1 (stereo unspecified)	> 50 µM (inactive)
CC(=O)c1ccc(N2C(=O)C3C(C2=O)C(C(=O)c2ccc(Cl)cc2)N2CCCC32)cc1 (stereo unspecified)	> 50 µM (inactive)
O=C(N/N=C/c1cc([N+](=O)[O-])ccc1O)c1cccc2cc[nH]c12	> 50 µM (inactive)
CC1(C)CC(=O)CC(=NCC(=O)O)C1	> 50 µM (inactive)
COC(=O)c1sc(N2C(=O)C(O)=C(C(=O)c3ccc(C)o3)C2c2ccc(F)cc2)nc1C (stereo unspecified)	> 50 µM (inactive)
N#CC1=C(N)NC(SCc2ccccc2)=C(C#N)C12CCCC2	> 50 µM (inactive)
Cc1cc(N/N=C/c2ccc(O)cc2)nc(NS(=O)(=O)c2ccccc2)n1	> 50 µM (inactive)
Cc1c(-c2cccs2)[n+](=O)c2c(n1[O-])CCC2	> 50 µM (inactive)
COc1ccc2c(c1)C(c1ccc([N+](=O)[O-])cc1)=NNC(c1ccco1)=N2	> 50 µM (inactive)
O=C1c2ccccc2C(=O)N1/N=C/c1ccc(O)c(O)c1O	> 50 µM (inactive)
O=c1c(/C=N/O)c(Nc2ccccc2)nc2ccccn12	> 50 µM (inactive)
COc1ccc(CN2C(=O)c3cccnc3C2Nc2cc(Cl)ccc2OC)cc1 (stereo unspecified)	7.23 µM
CCOC(=O)C1=C(N)OC2=C(C(=O)CCC2)C12C(=O)N(CC(N)=O)c1ccccc12 (stereo unspecified)	> 50 µM (inactive)
COC(=O)c1[nH]c(C)c(/C(O)=C2\C(=O)C(=O)N(CCN(C)C)C2c2cccc(OC)c2OC)c1C (stereo unspecified)	> 50 µM (inactive)
CC(C)n1c(=O)c(C=Nc2ccc(Br)cc2)c(O)n(Cc2ccco2)c1=O	> 50 µM (inactive)

Structure (SMILES)	IC50
CCC/S(C)=N/S(=O)(=O)c1ccc(C)cc1 (stereo unspecified)	> 50 µM (inactive)
O=C(O)c1cc(/C=N\O)ccc1OCc1ccccc1	> 50 µM (inactive)
O=C1CC(Sc2ccc(Cl)cc2)C(=O)N1c1ccc2c(c1)OCCO2 (stereo unspecified)	> 50 µM (inactive)
COc1cccc(N2CCN(C3CC(=O)N(c4ccc(F)c(Cl)c4)C3=O)CC2)c1 (stereo unspecified)	> 50 µM (inactive)
Cc1cc2c(C)nc(N/N=C/c3ccc([N+](=O)[O-])cc3)nc2o1	> 50 µM (inactive)
CCC(=O)N1CCN(CCN=CC2=C(O)CC(C)(C)CC2=O)CC1	> 50 µM (inactive)
COc1ccc2cc(C3C(C#N)=C(N)OC(C)=C3C(C)=O)c(Cl)nc2c1 (stereo unspecified)	> 50 µM (inactive)
COc1ccc(-c2[nH]nc3c2C(c2ccsc2)C(C#N)=C(N)O3)cc1 (stereo unspecified)	> 50 µM (inactive)
N#Cc1c(N)nc2c3c(sc(=N)c2c1N)NC(=O)CC3c1c(F)cccc1Cl (stereo unspecified)	> 50 µM (inactive)
N#C/C(=N\O)c1nc2ccccc2s1	> 50 µM (inactive)
Cc1ccc(NC2c3ncccc3C(=O)N2c2ccccc2C)cc1C (stereo unspecified)	5.53 µM
O=c1[nH]c(=O)n(Cc2ccco2)c(O)c1C=NCc1ccco1	> 50 µM (inactive)
CC1CC(C)(C)n2c(O)c(N=NC(N)=S)c3cccc1c32 (stereo unspecified)	> 50 µM (inactive)
CCOC(=O)C1(C)C=C(Nc2cccc(OC)c2)C(=O)N1c1ccccc1 (stereo unspecified)	> 50 µM (inactive)
O=C1C(C=NCCCN2CCOCC2)=C(O)c2ccccc21	> 50 µM (inactive)
CCN(CC)C(=O)c1sc(NC(=O)Cc2ccccc2)c(C#N)c1C	> 50 µM (inactive)
O=C1CC(c2ccccc2)CC(O)=C1C=NCCN1CCN(C(=S)Nc2cccc(Cl)c2)CC1 (stereo unspecified)	> 50 µM (inactive)
Cc1ccc(-c2[nH]nc3c2C(c2ccoc2)C(C#N)=C(N)O3)cc1C (stereo unspecified)	> 50 µM (inactive)
O=C(Nc1ccccc1)c1cccc(N2C(=O)CCC2=O)c1	> 50 µM (inactive)
O=C1CC(Nc2ccccc2)C(=O)N1c1ccc(N2CCOCC2)cc1 (stereo unspecified)	> 50 µM (inactive)
COc1ccc(OC)c(/C=N/Nc2cc(C)nc(N3CCOCC3)n2)c1	> 50 µM (inactive)
CC1(C)CC(=O)C(C=Nc2ccccc2Sc2ccccc2)=C(O)C1	> 50 µM (inactive)

Structure (SMILES)	IC50
COc1ccc(Oc2ccccc2/C=N/O)cc1	> 50 µM (inactive)
CCOc1cc(/C=N/Nc2nc(Nc3ccccc3)nc(N3CCCCC3)n2)ccc1OCC(=O)O	> 50 µM (inactive)
Oc1cccc(NC(=S)N=Nc2c(O)[nH]c3ccccc23)c1	> 50 µM (inactive)
CCOC(=O)c1ccc(N=C(c2ccccc2)c2c(O)n(C)c(=O)n(C)c2=O)cc1	> 50 µM (inactive)
CC(=O)C1=C(C)NC(C)=C(C(C)=O)C1c1cccs1	> 50 µM (inactive)
CC(C)(CO)N=Cc1c(O)[nH]c2ccccc12	> 50 µM (inactive)
CC1=C(C(=O)N2CCCCC2)C(c2cccs2)C2=C(CCCC2=O)N1 (stereo unspecified)	> 50 µM (inactive)
COc1cccc(/C(O)=C2/C(=O)C(=O)N(CCCN3CCOCC3)C2c2ccncc2)c1 (stereo unspecified)	46.3 µM
O=C(N/N=C\c1cccc([N+](=O)[O-])c1O)C1COc2ccccc2O1 (stereo unspecified)	> 50 µM (inactive)
COc1ccc(N2C(N)=C(C#N)C(c3cccnc3)C3=C2CC(C)(C)CC3=O)cc1 (stereo unspecified)	> 50 µM (inactive)
Oc1ccc2ccccc2c1C=NC12CN3CCN(CN(C3)C1)C2	> 50 µM (inactive)
COC(=O)c1cc(N2C(=O)C3C(C2=O)C2(C)C=CC3(C)O2)ccc1Cl (stereo unspecified)	> 50 µM (inactive)
CCC(=O)N1c2ccccc2NC2=C(C(=O)CCC2)C1c1ccc(N(C)C)cc1 (stereo unspecified)	> 50 µM (inactive)
O=C1CC(SCc2nc3ccccc3[nH]2)C(=O)N1c1ccc(F)cc1 (stereo unspecified)	> 50 µM (inactive)
Cc1cccc(NC2SC(=O)N(c3ccccc3)C2=O)c1 (stereo unspecified)	> 50 µM (inactive)
CC1=C(C(N)=O)C(c2ccccn2)n2nc(-c3ccccc3Cl)nc2N1 (stereo unspecified)	> 50 µM (inactive)
COC(/C=C/Nc1ccc(Br)cc1)=C(C#N)C#N	> 50 µM (inactive)
Cc1cc(/C(O)=C2\C(=O)C(=O)N(CCN(C)C)C2c2ccncc2)ccc1OCc1ccccc1 (stereo unspecified)	> 50 µM (inactive)
COc1ccc(C2C(C(=O)Nc3ccccc3OC)=C(C)Nc3ncnn32)cc1 (stereo unspecified)	> 50 µM (inactive)
COc1ccc(N2C(=O)CC(Nc3cccc([N+](=O)[O-])c3)C2=O)cc1 (stereo unspecified)	> 50 µM (inactive)
Cc1ccccc1NC(=O)Cn1c(O)c(N=NC(=O)c2ccccc2O)c2ccccc21	> 50 µM (inactive)
CCOC(=O)C1=C(CC)Nc2ccccc2N=C1NC(=O)CCN1C(=O)C2CCCCC2C1=O (stereo unspecified)	> 50 µM (inactive)
